Measured values published in ChEMBL document CHEMBL1932938, “From COX-2 inhibitor nimesulide to potent anti-cancer agent: synthesis, in vitro, in vivo and pharmacokinetic evaluation” (Eur J Med Chem, 2012).

Legend:
SK-BR-3 = assay: cells; details: Homo sapiens, SK-BR-3, 48 h
Description: Cytotoxicity against human SK-BR-3 cells after 48 hrs by MTT assay

[1] = Solubility of the compound; assay type: physicochemical

Row | SMILES | IC50 (SK-BR-3) [µM] | solubility [1]
1 | COc1ccc(CC(=O)Nc2ccc(N(C)S(C)(=O)=O)c(OCc3cc(C)ccc3C)c2)cc1OC | 34 | –
2 | CCCCCCCCCCCCCCCC(=O)Nc1ccc(N(C)S(C)(=O)=O)c(OCc2cc(C)ccc2C)c1 | – | Insoluble
3 | Cc1ccc(C)c(COc2cc(NC(=O)Cc3ccccc3)ccc2N(C)S(C)(=O)=O)c1 | > 100 | –
